Results from PubChem BioAssay AID248 (DTP/NCI, 2004).
“And” between values parts separate entries of the source, which are not always exact repeats. Identical values can stand only once. Toxic doses and inconclusive results are not listed. Cut-off read from the data, not from the text of the source: active = T/C of 150% or more; inactive = T/C below 125%.

System: L1210 leukemia ip in BDF1 mice, survival T/C
Test: NCI In Vivo Anticancer Drug Screen. Data for tumor model L1210 Leukemia (intraperitoneal) in B6D2F1 (BDF1) mice
Conditions: endpoint: mean survival time, higher = longer survival
Summary of the method: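 Tumor was transplanted into mice, which were then dosed with test compound or vehicle alone. Survival was recorded for each group, and the treated figure was expressed relative to the control figure.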

[1] = dose: 100.0 mg/kg/injection, schedule: Q04DX002 (ip), vehicle: saline
[2] = dose: 100.0 mg/kg/injection, schedule: Q04DX003 (ip), vehicle: Klucel (hydroxypropylcellulose) (HPC)
[3] = dose: 200.0 mg/kg/injection, schedule: Q04DX003 (ip), vehicle: Klucel (hydroxypropylcellulose) (HPC)
[4] = dose: 400.0 mg/kg/injection, schedule: Q04DX003 (ip), vehicle: Klucel (hydroxypropylcellulose) (HPC)
[5] = dose: 100.0 mg/kg/injection, schedule: Q04DX003 (ip), vehicle: saline
[6] = dose: 200.0 mg/kg/injection, schedule: Q04DX003 (ip), vehicle: saline
[7] = dose: 400.0 mg/kg/injection, schedule: Q04DX003 (ip), vehicle: saline
[8] = dose: 100.0 mg/kg/injection, schedule: Q01DX001 (ip), vehicle: saline
[9] = dose: 200.0 mg/kg/injection, schedule: Q01DX001 (ip), vehicle: saline
[10] = dose: 400.0 mg/kg/injection, schedule: Q01DX001 (ip), vehicle: saline
[11] = dose: 100.0 mg/kg/injection, schedule: Q01DX001 (ip), vehicle: Klucel (hydroxypropylcellulose) (HPC)
[12] = dose: 200.0 mg/kg/injection, schedule: Q01DX001 (ip), vehicle: Klucel (hydroxypropylcellulose) (HPC)
[13] = dose: 400.0 mg/kg/injection, schedule: Q01DX001 (ip), vehicle: Klucel (hydroxypropylcellulose) (HPC)
[14] = dose: 100.0 mg/kg/injection, schedule: Q01DX009 (ip), vehicle: saline with Tween-80
[15] = dose: 200.0 mg/kg/injection, schedule: Q01DX009 (ip), vehicle: saline with Tween-80

Measured: T/C

O=C([O-])CO.[Co+3].[NH2-].[NH2-].[NH2-].[NH2-].[NH2-].[O-][Cl+3]([O-])([O-])O
inactive: [1] 103 % of control | dose: 200.0 mg/kg/injection, schedule: Q04DX002 (ip), vehicle: saline 100 % of control | dose: 400.0 mg/kg/injection, schedule: Q04DX002 (ip), vehicle: saline 103 % of control

CCCCCCCCCCCCCCCC1=NN(c2ccccc2)C(=O)C1NC(=O)O (stereo unspecified)
inactive: [2] 107 % of control | [3] 97 % of control | [4] 98 % of control

CCN(CC)Cc1cc(Nc2c3ccc([N+](=O)[O-])cc3nc3ccc(OC)cc23)ccc1O
inactive: dose: 50.0 mg/kg/injection, schedule: Q01DX009 (ip), vehicle: saline 95 % of control | dose: 100.0 mg/kg/injection, schedule: Q01DX009 (ip), vehicle: saline 98 % of control and 100 % of control | [5] 95 % of control | dose: 200.0 mg/kg/injection, schedule: Q01DX009 (ip), vehicle: saline 95 % of control and 109 % of control | [6] 95 % of control | dose: 400.0 mg/kg/injection, schedule: Q01DX009 (ip), vehicle: saline 97 % of control | [7] 90 % of control

S=C(NCCN1CCOCC1)Nc1ccccc1
inactive: dose: 50.0 mg/kg/injection, schedule: Q01DX001 (ip), vehicle: other 105 % of control | dose: 100.0 mg/kg/injection, schedule: Q01DX001 (ip), vehicle: other 94 % of control | dose: 200.0 mg/kg/injection, schedule: Q01DX001 (ip), vehicle: other 94 % of control | dose: 400.0 mg/kg/injection, schedule: Q01DX001 (ip), vehicle: other 92 % of control

C(=NCCc1ccccc1)c1ccccc1B1OB(c2ccccc2C=NCCc2ccccc2)OB(c2ccccc2C=NCCc2ccccc2)O1
inactive: dose: 100.0 mg/kg/injection, schedule: Q01DX009 (ip), vehicle: Klucel (hydroxypropylcellulose) (HPC) 97 % of control | [2] 91 % of control | dose: 200.0 mg/kg/injection, schedule: Q01DX009 (ip), vehicle: Klucel (hydroxypropylcellulose) (HPC) 97 % of control | [3] 89 % of control | dose: 400.0 mg/kg/injection, schedule: Q01DX009 (ip), vehicle: Klucel (hydroxypropylcellulose) (HPC) 102 % of control | [4] 94 % of control

N#CC(Sc1ccccc1)c1ccccc1 (stereo unspecified)
inactive: dose: 100.0 mg/kg/injection, schedule: Q04DX002 (ip), vehicle: Klucel (hydroxypropylcellulose) (HPC) 119 % of control | dose: 200.0 mg/kg/injection, schedule: Q04DX002 (ip), vehicle: Klucel (hydroxypropylcellulose) (HPC) 97 % of control | dose: 400.0 mg/kg/injection, schedule: Q04DX002 (ip), vehicle: Klucel (hydroxypropylcellulose) (HPC) 86 % of control

O=[N+]([O-])c1ccccc1C1ON1C1CCCCC1 (stereo unspecified)
inactive: [8] 97 % of control | [9] 97 % of control | [10] 90 % of control

Cc1ccc(C(=O)C2OC2c2ccccc2)cc1 (stereo unspecified)
inactive: [11] 97 % of control | [12] 95 % of control | [13] 89 % of control

CCC1OC2(C)CCCC1O2 (stereo unspecified)
inactive: dose: 25.0 mg/kg/injection, schedule: Q01DX001 (ip), vehicle: saline sonified 111 % of control | dose: 50.0 mg/kg/injection, schedule: Q01DX001 (ip), vehicle: saline sonified 101 % of control | dose: 100.0 mg/kg/injection, schedule: Q01DX001 (ip), vehicle: saline sonified 122 % of control

CC1CCCCC1O (stereo unspecified)
inactive: [14] 102 % of control | [15] 92 % of control

Cc1ccc(N=Cc2cc([N+](=O)[O-])ccc2O)cc1
inactive: dose: 87.5 mg/kg/injection, schedule: Q04DX003 (ip), vehicle: Klucel (hydroxypropylcellulose) (HPC) 102 % of control | dose: 175.0 mg/kg/injection, schedule: Q04DX003 (ip), vehicle: Klucel (hydroxypropylcellulose) (HPC) 92 % of control | dose: 350.0 mg/kg/injection, schedule: Q04DX003 (ip), vehicle: Klucel (hydroxypropylcellulose) (HPC) 97 % of control

O=CNc1ccc2c3c(cccc13)CC2
inactive: [11] 101 % of control | [12] 93 % of control | [13] 108 % of control

c1ccc(NC2CCN(C3(c4ccccc4)CCCCC3)CC2)cc1
inactive: [1] 100 % of control

COc1ccccc1-n1c(O)c(N=Nc2ccccc2C)c(=O)n(-c2ccc(I)cc2)c1=S
inactive: dose: 37.5 mg/kg/injection, schedule: Q01DX001 (ip), vehicle: Klucel (hydroxypropylcellulose) (HPC) 89 % of control | dose: 75.0 mg/kg/injection, schedule: Q01DX001 (ip), vehicle: Klucel (hydroxypropylcellulose) (HPC) 92 % of control | dose: 150.0 mg/kg/injection, schedule: Q01DX001 (ip), vehicle: Klucel (hydroxypropylcellulose) (HPC) 97 % of control

CCCCCC(/C=N\NC(=O)CCCC(=O)N/N=C/C(=C/c1ccccc1)CCCCC)=C\c1ccccc1
inactive: dose: 50.0 mg/kg/injection, schedule: Q01DX001 (ip), vehicle: saline 89 % of control | [8] 95 % of control | [9] 97 % of control | [10] 89 % of control

O=C1NC(=O)C(CSCc2ccccc2)(CSCc2ccccc2)N1
inactive: dose: 50.0 mg/kg/injection, schedule: Q01DX009 (ip), vehicle: saline with Tween-80 94 % of control | [14] 92 % of control and 102 % of control | [15] 94 % of control and 97 % of control | dose: 400.0 mg/kg/injection, schedule: Q01DX009 (ip), vehicle: saline with Tween-80 100 % of control

CCOC(=O)CCOCOCCC(=O)OCC
inactive: [5] 106 % of control | [6] 110 % of control | [7] 95 % of control

[N-]=[N+]=C1N=C(Cl)N=C1c1ncn[nH]1
inactive: dose: 25.0 mg/kg/injection, schedule: Q01DX001 (ip), vehicle: Klucel (hydroxypropylcellulose) (HPC) 97 % of control | dose: 50.0 mg/kg/injection, schedule: Q01DX001 (ip), vehicle: Klucel (hydroxypropylcellulose) (HPC) 108 % of control | [11] 102 % of control and 112 % of control | [13] 112 % of control

O=C(COc1cccc(Cl)c1)Nc1cccc(CN2C(=O)c3ccccc3C2=O)c1
inactive: dose: 50.0 mg/kg/injection, schedule: Q04DX003 (ip), vehicle: Klucel (hydroxypropylcellulose) (HPC) 96 % of control | [2] 98 % of control | [3] 95 % of control

CCOC(=O)c1[nH]c(C)c(C(=O)OCC)c1-c1ccc(OC)cc1
inactive: [11] 100 % of control | [2] 96 % of control | [12] 93 % of control | [3] 108 % of control | [13] 98 % of control | [4] 96 % of control
